According to US20250073255A1, “USE OF FA-TYPE LIPID COMPOUNDS IN PREPARATION OF NUCLEIC ACID DELIVERY REAGENT AND RELATED PRODUCT” (BEIJING BAISHIKANG PHARMACEUTICAL TECHNOLOGY (BSJPHARMA) …, priority 2021, published 2025):

Tested on: C57BL/6 male mice
Assay: In vivo delivery study of lipid nucleic acid mixture (oral gavage, RT-qPCR of PGY-sRNA-26 in tissues)
Parameters: species or system mouse
Conditions: for overall delivery efficacy: delivering nucleic acids into each tissue and blood tested: 100 μg lipid:10 nmol PGY-sRNA-26, all tissues and blood tested; for oral delivery of single-stranded sRNA nucleic acids into mouse blood / oral delivery of single-stranded sRNA nucleic acids into mouse brain tissue / oral delivery of single-stranded sRNA nucleic acids into mouse femur / oral delivery of single-stranded sRNA nucleic acids into mouse heart tissue / oral delivery of single-stranded sRNA nucleic acids into mouse intestinal tissue / oral delivery of single-stranded sRNA nucleic acids into mouse kidney tissue / oral delivery of single-stranded sRNA nucleic acids into mouse liver tissue / oral delivery of single-stranded sRNA nucleic acids into mouse lung tissue / oral delivery of single-stranded sRNA nucleic acids into mouse spleen tissue / oral delivery of single-stranded sRNA nucleic acids into mouse stomach tissue / oral delivery of single-stranded sRNA nucleic acids into mouse pancreatic tissue: 100 μg lipid:10 nmol PGY-sRNA-26, sampled after 12 hours; for oral delivery of single-stranded sRNA nucleic acids into mouse heart tissue: vs free uptake group; for oral delivery of single-stranded sRNA nucleic acids into mouse intestinal tissue: intestine; for oral delivery of single-stranded sRNA nucleic acids into mouse pancreatic tissue: pancreas
Procedure: 10 nmol of small RNA (as shown in Table 2) was dissolved in 400 μl of DEPC-treated water in a glass tube, 10 μl of the corresponding lipid stock solution was added such that the lipid mass in the system was 100 μg. The mixture was mixed thoroughly, heated in a 90° C. water bath for 15 minutes, and then cooled naturally to obtain the lipid nucleic acid mixture of lipid and small RNA.
C57BL/6 male mice, approximately 6 weeks old, weighing […], were obtained from Beijing Vital River Laboratory Animal Technology Co., Ltd. The mice were housed in the SPF-grade animal facility at the Animal Center of the Institute of Basic Medical Sciences, Chinese Academy of Medical Sciences. The mice were fasted for 12 hours before gavage administration.
The lipid nucleic acid mixture was prepared following the method described in Example 2. The resultant lipid nucleic acid mixture was orally administered to each mouse at a dose of 100 μg lipid:10 nmol single-stranded 3-methylated small RNA PGY-sRNA-26.
• 1) Blank group (n=4): mice were administered with 500 μl saline by gavage, this group served as a blank control; • 2) Free uptake group (n=4): mice were directly administered with small RNA PGY-sRNA-26 solution (10 nmol/mouse, 500 l) by gavage, this group served as a negative control; • 3) Lipid-treated group (n=4): mice were administered with 500 μl lipid nucleic acid mixture prepared in step 2 by gavage.
After 12 hours of gavage administration, 500 μl blood from the eyeball of each mouse was sampled, added to 1.5 ml Trizol Reagent LS (purchased from Invitrogen), thoroughly mixed for lysis. 3 ml of Trizol Reagent LSwas added to tissue samples and homogenized for complete lysis, wherein the sampled tissues include heart, liver, spleen, lung, kidney, stomach, intestine, brain, blood, femur, pancreas. RNAwas extracted from 1 ml of the blood or the tissue lysate following the steps below: • Centrifuge at 4° C., 12,000 rpm for 5 min, discard the precipitate, transfer Trizol to a new centrifuge tube; • Add chloroform at 200 μL chloroform/mL Trizol, shake well, stand at room temperature for 5 min; • Centrifuge at 4° C., 12,000 rpm for 15 min; • Take the upper aqueous phase to another centrifuge tube, add isopropanol at 0.4 mL isopropanol/mL Trizol, mix well, and stand at low temperature for 10-20 min; • Centrifuge at 4° C., 12,000 rpm for 15 min, discard the supernatant, RNA precipitated at the bottom of the tube; • Add 1 mL of 75% ethanol, gently shake the centrifuge tube, suspend the precipitate; • Centrifuge at 4° C., 12,000 rpm for 15 min, discard the supernatant, add 1 mL of 75% ethanol, gently shake the centrifuge tube, suspend the precipitate; • Centrifuge at 4° C., 12,000 rpm for 15 min, discard the supernatant, air-dry at room temperature, dissolve RNA samples in 50 μL RNase-free H2O, measure OD value to quantify RNA concentration. 3.3 Reverse Transcription of sRNA to cDNA:
sRNA was reverse transcribed to cDNA using the High-Capacity cDNA Reverse Transcription Kit (Applied Biosystems, cat. no. 4368813) by stem-loop method (see, e.g., “Real-time quantification of microRNAs by stem-loop RT-PCR, Nucleic Acids Res. 2005 Nov. 27; 33(20):e179”, incorporated herein by reference). The reverse transcription system is as follows: Template RNA (200 ng/μL) 10 μL, 10×RT Buffer 2.0 μL, 25×dNTP Mix (100 mM) 0.8 μL, U6 RT stem-loop primer (10 μM) 2.0 μL, PGY-sRNA-26 RT stem-loop primer (10 μM) 2.0 μL, MultiScribe™ Reverse Transcriptase (50 U/μL) 1.0 μL, RNAse Inhibitor (40 U/μL) 1.0 μL, nuclease-free H2O 1.2 μL. After transient centrifugation, the reverse transcription system was placed in a PCR machine with the following reaction conditions: (1) 25° C., 10 min; (2) 37° C., 120 min; (3) 85° C., 5 min; (4) 4° C., stop reaction. After the reaction, add 20 μL RNAse-free ddH2O, adjust the final volume to 40 μL. […]

| SMILES | overall delivery efficacy: delivering nucleic acids into each tissue and blood tested | oral delivery of single-stranded sRNA nucleic acids into mouse blood | oral delivery of single-stranded sRNA nucleic acids into mouse brain tissue | oral delivery of single-stranded sRNA nucleic acids into mouse femur | oral delivery of single-stranded sRNA nucleic acids into mouse heart tissue | oral delivery of single-stranded sRNA nucleic acids into mouse intestinal tissue | oral delivery of single-stranded sRNA nucleic acids into mouse kidney tissue | oral delivery of single-stranded sRNA nucleic acids into mouse liver tissue | oral delivery of single-stranded sRNA nucleic acids into mouse lung tissue | oral delivery of single-stranded sRNA nucleic acids into mouse spleen tissue | oral delivery of single-stranded sRNA nucleic acids into mouse stomach tissue | oral delivery of single-stranded sRNA nucleic acids into mouse pancreatic tissue |
| --- | --- | --- | --- | --- | --- | --- | --- | --- | --- | --- | --- | --- |
| O=C(O)CCCCCCCCCCCCCCC(=O)O [Lipid 529, hexadecanedioic acid] | best delivery efficacy | can effectively orally deliver | can effectively orally deliver | can effectively orally deliver | can effectively orally deliver | can effectively orally deliver | can effectively orally deliver | can effectively orally deliver | can effectively orally deliver | can effectively orally deliver | can effectively orally deliver | – |
| CCCCC/C=C\C/C=C\C/C=C\C/C=C\CCCC(=O)NCCCCCO [Lipid 807, (5Z,8Z,11Z,14Z)-N-(5-hydroxypentyl)icosa-5,8,11,14-tetraenamide] | – | can effectively orally deliver | can effectively orally deliver | can effectively orally deliver | can effectively orally deliver | can effectively orally deliver | can effectively orally deliver | can effectively orally deliver | can effectively orally deliver | can effectively orally deliver | can effectively orally deliver | can effectively orally deliver |
| CCCCCC/C=C\CCCCCCCC(=O)OCCCCCCCCCCCCCCCCC [Lipid 818, heptadecyl (Z)-hexadec-9-enoate] | – | can effectively orally deliver | can effectively orally deliver | can effectively orally deliver | can effectively orally deliver | can effectively orally deliver | can effectively orally deliver | can effectively orally deliver | can effectively orally deliver | can effectively orally deliver | can effectively orally deliver | can effectively orally deliver |
| CCCCCCCCCCCCCCCCCCCCCCC(=O)NCCO [Lipid 519, N-(2-hydroxyethyl)tricosanamide] | – | – | – | – | can effectively orally deliver | – | can effectively orally deliver | – | can effectively orally deliver | – | can effectively orally deliver | – |
| CCCCCCCCCCCCCCCCCC(=O)N[C@@H](Cc1ccccc1)C(=O)O [Lipid 830, (2S)-2-(octadecanoylamino)-3-phenylpropanoic acid] | – | can effectively orally deliver | can effectively orally deliver | can effectively orally deliver | can effectively orally deliver | can effectively orally deliver | can effectively orally deliver | can effectively orally deliver | can effectively orally deliver | can effectively orally deliver | can effectively orally deliver | can effectively orally deliver |
| CCCCCC/C=C\CCCCCCCC(=O)OCCCCCCCCCCCCCCCCCCC [Lipid 822, nonadecyl (Z)-hexadec-9-enoate] | best delivery efficacy | can effectively orally deliver | can effectively orally deliver | can effectively orally deliver | can effectively orally deliver | can effectively orally deliver | can effectively orally deliver | can effectively orally deliver | can effectively orally deliver | can effectively orally deliver | can effectively orally deliver | can effectively orally deliver |
| CCCCCCCCCCCCCCCC(=O)NCCO [Lipid 578, N-(2-hydroxyethyl)hexadecanamide] | – | can effectively orally deliver | can effectively orally deliver | can effectively orally deliver | can effectively orally deliver | – | can effectively orally deliver | can effectively orally deliver | can effectively orally deliver | can effectively orally deliver | can effectively orally deliver | – |
